Literature values in patent EP0495131B1, “AGENT FOR PREVENTING AND TREATING HEPATITIS” (priority 1990, dated 1992).

Tested on: hepatitis, especially B-type hepatitis
Conditions: percentage of patients in which antigen is converted into negative and antibody into positive; anti-virus agents for hepatitis

Compound	rate of the seroconversion (SC rate)
Nc1ncnc2c1ncn2[C@@H]1O[C@H](CO)[C@@H](O)[C@@H]1O [Ara-A, adenine arabinoside]	0-30%
Nc1nc2c(ncn2COCCO)c(=O)[nH]1 [acyclovir]	about 27%
